{"source": "patent US8748116B2", "about": "“1L1RL-1 as a cardiovascular disease marker and therapeutic target” (The Brigham and Women s Hospital, Inc., priority 2002, dated 2014)", "key": {"IL1RL-1 mRNA expression": {"tested_on": "IL1RL-1 mRNA expression", "assay": "Northern blot of IL1RL-1 (T1/ST2) mRNA induction in cultured neonatal rat cardiac myocytes, with or without 8% cyclic mechanical strain", "type": "cell-based", "details": "for effect on the induction of IL1RL-1 mRNA expression by 8% mechanical strain: FIG. 4, applied during strain, actinomycin D 5 μg/ml (2 and 4 hours), cyclohexamide 10 μg/ml; for induction of IL1RL-1 mRNA expression in the absence of mechanical strain: FIG. 2, 3 hours, Ang II 50 nM; for induction of IL1RL-1 mRNA expression in the absence of mechanical strain / rank order potency for the induction of IL1RL-1 mRNA expression / induction of IL1RL-1 mRNA expression by the agent alone: IL-1β 10 ng/ml; for induction of IL1RL-1 mRNA expression in the absence of mechanical strain / rank order potency for the induction of T1/ST2 mRNA expression: PMA 200 nM; for rank order potency for the induction of IL1RL-1 mRNA expression: PMA 100 ng/ml, 8% strain; for induction of IL1RL-1 mRNA expression by the agent alone: PMA 100 ng/ml in the absence of strain; for rank order potency for the induction of T1/ST2 mRNA expression: strain 8%, 1 and 3 hours", "description": "The approach to mechanical stimulation used an apparatus that has multiple platens that contact the underside of silicone elastomer membranes to apply a spatially isotropic biaxial strain profile to the membrane (Schaffer J L, et al., J Orthop Res, 1993, 12:709-719; and U.S. Provisional Patent application 60/144,134 filed on Jul. 16, 1999 entitled “AN APPARATUS FOR STUDYING MYOCARDIAL MECHANICAL OVERLOAD HYPERTROPHY AND USES THEREFOR, by Richard T. Lee. Six individual 78 mm membranes can be stretched at once with varying amplitudes of strain by controlling displacement of each platen with a stepper motor. Measured Green strains are accurate to ˜±0.25% at strains from 1-14% (Cheng G C, et al., Circ Res, 1997, 80:28-36; Brown T D, J Biomechanics, 2000, 33:3-14). Throughout this study, 8% biaxial strain was used.\nNeonatal rat ventricular myocytes (NRVM) from 1-day old Sprague-Dawley rats were isolated by previously described methods (Springhorn J P, and Claycomb W C., Biochem J, 1989; 258:73-78; Arstall M A, et al., J Mol Cell Cardiol, 1998, 30:1019-25). NRVM were plated on the coated membrane dish at a density of 2,000,000 cells/dish in DMEM containing 7% FCS and incubated 24 h. Approximate cell confluence was 85-90%. NRVM were then made quiescent by washing with 10 ml of Hanks' balanced salt solution (HBSS, 138 mM NaCl, 5.3 mM KCl, 4.0 mM NaHCO3, 1.3 mM CaCl2, 0.5 mM MgCl2, 0.4 mM MgSO4, 0.4 mM KH2PO4, 0.3 mM Na2HPO4, 5.6 mM glucose; Life Technologies, Inc., Rockville, Md.) twice and incubating with 26 ml of DMEM containing 0.2% FCS for 48-72 hours.\nThe cDNA clones for differentially expressed genes were obtained by PCR using the GenBank sequences. Each clone was sequenced from both 5′ and 3′ ends to confirm identity. Positive elements in the DNA microarray were confirmed by Northern blot hybridization analysis in at least three independent experiments using three different sources of NRVMs. Total RNA was isolated by the guanidium thiocyanate and phenol chloroform method (Chomcyznski, et al., Anal. Biochem., 1987, 162:156-159). For Northern blotting, 15 μg RNA was loaded on a 1.0% agarose-formaldehyde gel (2.0 mol/l), transferred to a nylon membrane (Amersham Pharmacia Biotech AB, Piscataway, N.J.), and UV cross-linked with a UV Stratalinker (Stratagene, Inc., La Jolla, Calif.). Each probe was hybridized with ExpressHyb solution (Clontech Labs., Inc., Palo Alto, Calif.) at 68° C. for 1 hour. The membrane was washed with 2×SSC, 0.05% SDS solution for 30 to 40 minutes and three times at room temperature and 0.1×SSC, 0.1% SDS solution with continuous shaking at 50° C. for 40 minutes. The membrane was exposed to film at −80° C., and radiographs were scanned and analyzed with Optimas 5.0 software (Optimas Co./Media Cybernetics, Silver Springs, Md.). Densitometric units were normalized to the ethidium-stained 28S ribosomal subunit on the membrane.\nT1/ST2 mRNA is induced by mechanical strain in cultured neonatal cardiac myocytes. Neonatal rat ventricular myocytes were isolated by collagenase digestion, plated on fibronectin-coated silicone membrane dishes at a density of 3.5 million cells/dish in 13 ml media as previously described (Yamamoto K, et al. J Biol. Chem. 1999; 274:21840-21846). This technique yields cultures with ≧95% myocytes. Mechanical deformation was applied using a device that provides uniform biaxial cyclic strain as previously described (Yamamoto K, et al. J Biol. Chem. 1999; 274:21840-21846). RNA was extracted (Qiagen) and Northern blotting was performed using as a probe a ^32P-labelled 600 bp PCR fragment specific to rat T1/ST2. Maximal induction occurs at 3 hours, is sustained for 9 hours and declines by 15 hours. […]"}, "T1/ST2 mRNA": {"tested_on": "T1/ST2 mRNA", "assay": "T1/ST2 mRNA induction in human adult vascular smooth muscle cells", "type": "cell-based"}}, "note": "Entries after “also recorded” stand apart in the source; their conditions may differ. Starred links: 1 amine or outer side, 2 acyl side, 3 side chain; linkers in the order of their positions; H or OH if unused. Positions of bridges follow the written chain, without caps; N, C: chain ends. Non-standard residues stand in square brackets, D forms with d. Residues, ends and D or L forms follow the SMILES beside them. Chains are numbered I, II in the order given. Actinocin(9to1) = Cc1c2oc3c(C)ccc(C(=O)[*:1])c3nc-2c(C(=O)[*:2])c(N)c1=O; NMeV = CN[C@H](C(=O)O)C(C)C; Sar = CNCC(=O)O"}
{"compound": "C[C@@H]1C[C@@H]([C@H](O)CC2CC(=O)NC(=O)C2)C(=O)[C@@H](C)C1", "note": "[cyclohexamide]", "values": [{"measurement": "effect on the induction of IL1RL-1 mRNA expression by 8% mechanical strain", "setting": "IL1RL-1 mRNA expression", "value": "blocked the induction"}]}
{"compound": "angiotensin II", "values": [{"measurement": "induction of IL1RL-1 mRNA expression in the absence of mechanical strain", "setting": "IL1RL-1 mRNA expression", "value": "did not induce"}]}
{"compound": "CCCCCCCCCCCCCC(=O)O[C@@H]1[C@@H](C)[C@@]2(O)[C@@H](C=C(CO)C[C@]3(O)C(=O)C(C)=C[C@@H]23)[C@@H]2C(C)(C)[C@]12OC(C)=O", "note": "[PMA]", "values": [{"measurement": "induction of IL1RL-1 mRNA expression in the absence of mechanical strain", "setting": "IL1RL-1 mRNA expression", "value": "associated with an induction"}, {"measurement": "rank order potency for the induction of IL1RL-1 mRNA expression", "setting": "IL1RL-1 mRNA expression; FIG. 5", "value": "PMA>strain>IL-1β"}, {"measurement": "induction of IL1RL-1 mRNA expression by the agent alone", "setting": "IL1RL-1 mRNA expression; FIG. 5", "value": "strongest induction"}, {"measurement": "rank order potency for the induction of T1/ST2 mRNA expression", "setting": "IL1RL-1 mRNA expression; FIG. 9, interleukin-1 10 ng/ml", "value": "PMA>strain>interleukin-1β; also recorded: PMA>strain>IL-1"}, {"measurement": "induction of T1/ST2 mRNA", "setting": "T1/ST2 mRNA", "value": "not"}]}
{"compound": "OO", "note": "[H2O2, hydrogen peroxide]", "values": [{"measurement": "effect on the strain-induced induction of IL1RL-1", "setting": "IL1RL-1 mRNA expression; FIG. 3, 8% mechanical strain, H2O2 100 uM", "value": "blocks the strain-induced induction"}, {"measurement": "induction of IL1RL-1 in the absence of strain", "setting": "IL1RL-1 mRNA expression; FIG. 3, H2O2 100 uM", "value": "does not induce"}]}
{"compound": "Cc1c2oc3c(C)ccc(C(=O)N[C@@H]4C(=O)N[C@H](C(C)C)C(=O)N5CCC[C@H]5C(=O)N(C)CC(=O)N(C)[C@@H](C(C)C)C(=O)O[C@@H]4C)c3nc-2c(C(=O)N[C@@H]2C(=O)N[C@H](C(C)C)C(=O)N3CCC[C@H]3C(=O)N(C)CC(=O)N(C)[C@@H](C(C)C)C(=O)O[C@@H]2C)c(N)c1=O", "note": "[Actinomycin D, actinomycin D] (I: T[dV]P[Sar][NMeV] / II: T[dV]P[Sar][NMeV]; ester I:1-I:C, II:1-II:C; linker I:N-II:N via Actinocin(9to1))", "values": [{"measurement": "effect on the induction of IL1RL-1 mRNA expression by 8% mechanical strain", "setting": "IL1RL-1 mRNA expression", "value": "blocked the induction"}]}
{"compound": "O=S(=O)(O)c1cc(O)c(O)c(S(=O)(=O)O)c1", "note": "[TIRON]", "values": [{"measurement": "mRNA expression of IL1RL-1 in the absence and presence of strain", "setting": "IL1RL-1 mRNA expression; FIG. 3, TIRON 10 mM", "value": "slightly attenuated"}]}
{"compound": "interleukin-1β [IL-1β]", "values": [{"measurement": "induction of T1/ST2 RNA in cardiac myocytes", "setting": "IL1RL-1 mRNA expression", "value": "induce T1/ST2 RNA"}, {"measurement": "induction of IL1RL-1 mRNA expression in the absence of mechanical strain", "setting": "IL1RL-1 mRNA expression", "value": "associated with an induction"}, {"measurement": "induction of IL1RL-1 by mechanical strain in the presence of IL-1β", "setting": "IL1RL-1 mRNA expression; FIG. 5, 8% strain plus IL-1β 10 ng/ml", "value": "not further increased"}, {"measurement": "rank order potency for the induction of IL1RL-1 mRNA expression", "setting": "IL1RL-1 mRNA expression; FIG. 5", "value": "PMA>strain>IL-1β"}, {"measurement": "induction of IL1RL-1 mRNA expression by the agent alone", "setting": "IL1RL-1 mRNA expression; FIG. 5", "value": "induced"}, {"measurement": "induction of T1/ST2 by mechanical strain in the presence of interleukin-1β", "setting": "IL1RL-1 mRNA expression; FIG. 9, 8% strain plus interleukin-1 10 ng/ml", "value": "not further increased"}, {"measurement": "rank order potency for the induction of T1/ST2 mRNA expression", "setting": "IL1RL-1 mRNA expression; FIG. 9, interleukin-1 10 ng/ml", "value": "PMA>strain>interleukin-1β"}, {"measurement": "rank order potency for the induction of T1/ST2 mRNA expression", "setting": "IL1RL-1 mRNA expression; FIG. 9, interleukin-1 10 ng/ml, listed as IL-1", "value": "PMA>strain>IL-1"}, {"measurement": "induction of T1/ST2 mRNA in the presence of infection with control adenovirus", "setting": "IL1RL-1 mRNA expression; FIG. 10, interleukin-1 10 ng/ml, 4 hours", "value": "induced T1/ST2 mRNA"}, {"measurement": "induction of T1/ST2 mRNA", "setting": "T1/ST2 mRNA", "value": "induced"}]}
